Experimental data: US20090325947A1, “NITRATE ESTERS OF PIPERIDINES” (priority 2006, published 2009)

Tested on: phenylephrine-precontracted vessels (thoracic aorta or femoral vein rings)
Assay: in vitro vascular reactivity test: relaxation of phenylephrine-precontracted aorta or vein rings
Settings: at 100 μM; relative to phenylephrine (0.1 μM)-induced contractile tone
Text: The determination of the nitrogen monoxide-releasing properties of a compound, be it by enzymatic or non-enzymatic action, can be carried out by means of in vitro vascular reactivity tests. The in vitro vascular reactivity test measures the ability of the released nitrogen monoxide to relax a pretensioned aorta ring or vein ring which is kept in an organ chamber. […] The thoracic aorta or the femoral vein is isolated from sacrificed and exsanguinated Wistar rats and cut up to give rings 2 mm long. The vascular rings are stored in organ chambers. Changes in the development of tension after the action of compounds are recorded by an isometric signal transmitter, which is connected to a computerized detection system. The computer program analyses time curves, period and size amounts between contractions.

SMILES | relaxation, percentage of the maximal vessel relaxation achieved with sodium nitroprusside (SNP)
COCCCN1CCOc2ccc(CO[C@H]3CNC[C@@H](OC[C@@H](C)O[N+](=O)[O-])[C@@H]3c3ccc(COCCOC)cc3)cc21 [Example 6] | 15%
COCCCN1CCOc2ccc(CO[C@H]3CNC[C@@H](OC[C@H](O)CO[N+](=O)[O-])[C@@H]3c3ccc(COC[C@@H](C)COC)cc3)cc21 [Example 8, (S)-1-{(3S,4R,5R)-4-[4-((S)-3-Methoxy-2-methyl-Propoxymethyl)phenyl]-5-[4-(3-methoxypropyl)-3,4-dihydro-2H-benzo[1,4]oxazin-6-ylmethoxy]-piperidin-3-yloxy}-3-nitrooxypropan-2-ol] | 20%
COCCCN1CCOc2ccc(CO[C@H]3CNC[C@@H](O[N+](=O)[O-])[C@@H]3c3ccc(COC[C@@H](C)COC)cc3)cc21 [Example 9, 6-{(3R,4R,5S)-4-[4-((S)-3-Methoxy-2-methylpropoxy-methyl)phenyl]-5-nitrooxypiperidin-3-yloxy-methyl}-4-(3-methoxypropyl)-3,4-dihydro-2H-benzo-[1,4]oxazine] | 8%
COCCCN1CCOc2ccc(CO[C@H]3CNC[C@@H](OC[C@@H](COC)O[N+](=O)[O-])[C@@H]3c3ccc(COC[C@@H](C)COC)cc3)cc21 [Example 14] | 25%
COCCCN1CCOc2ccc(CO[C@H]3CNC[C@@H](CO[N+](=O)[O-])[C@@H]3c3ccc(COC[C@@H](C)COC)cc3)cc21 [Example 21, 6-{(3R,4R,5S)-4-[4-((S)-3-Methoxy-2-methyl-propoxymethyl)phenyl]-5-nitro-oxymethylpiperidin-3-yloxymethyl}-4-(3-methoxypropyl)-3,4-dihydro-2H-benzo[1,4]oxazine] | 20%
COCCCN1CCOc2ccc(CO[C@H]3CNC[C@@H](OC[C@H](COC)O[N+](=O)[O-])[C@@H]3c3ccc(COC[C@@H](C)COC)cc3)cc21 [Example 34, 6-[(3R,4R,5S)-4-[4-((S)-3-Methoxy-2-methylpropoxy-methyl)phenyl]-5-((S)-3-methoxy-2-nitrooxy-propoxy)piperidin-3-yloxymethyl]-4-(3-methoxy-propyl)-3,4-dihydro-2H-benzo[1,4]oxazine] | 8%
